Here are results for 21 compounds from paper PMC6254971, “Antimalarial Activity of Ultra-Short Peptides” (Molecules, 2009).

Assay [1] deals with Plasmodium berghei schizonts (ANKA 2.34), chloroquine-sensitive. The assay is described as follows: microbe, parasite or virus in culture. To be noted: for Chemosuppression of P. berghei schizont cultures (%): compound 200 μM, schizonts counted in 2,000 erythrocytes. The procedure:
Mature P. berghei schizonts were prepared as described by Thathy and Menard. […] Parasites were incubated for 16 h at 37 °C as described. Chloroquine (C6628 Sigma Chloroquine diphosphate salt solid, ≥98% purity) was used as positive control. Samples of 0.5 mL of each culture were taken to prepare smears and used to count numbers of schizonts in 2,000 erythrocytes. The IC50 values of each compound were determined using concentrations of 5, 50, 100, and 200 µM, according to Khalid et al., and by extrapolation from the concentration response curve. The IC50 value represents the drug concentration producing a 50% reduction in the number of P. berghei schizonts (compared to drug-free control cultures).

For a further assay, the system named is P. falciparum. The arrangement: method as in 6 sources, ref 23 = [23]; PMID 16723585; doi:10.1128/AAC.00022-06; 23. Parikh S. Liu J. Sijwali P. Gut J. Goldberg D.E. Rosenthal P.J. Antimalarial effects of human immunodeficiency virus type 1 protease inhibitors differ from those of the aspartic protease inhibitor ||| ref 24 = [24]; PMID 11172676; doi:10.2174/0929867013373787; 24. Meinke P.T. Liberator P. Histone deacetylase: A target for antiproliferative and antiprotozoal agents Current Med. Chem. 2001 8 211 235 10.2174/0929867013373787 11172676 ||| ref 12 = [12]; PMID 16643062; doi:10.1021/np050549h; 12. Thongtan J. Saenboonrueng J. Rachtawee P. Isaka M. An antimalarial tetrapeptide from the entomopathogenic fungus Hirsutella sp. BCC 1528 J. Nat. Prod. 2006 69 713 714 10.1021/np050549h 16643062 ||| ref 25 = [25]; PMID 18305429; doi:10.3390/molecules13020432; 25. Sathe M. Thavaselvam D. Srivastava A.K. Kaushik M.P. Synthesis and antimalarial evaluation of cyclic β-amino acid-containing dipeptides Molecules 2008 13 432 443 10.3390/molecules13020432 18305429 ||| ref 30, 31 = [30]; PMID 1939639; doi:10.1172/JCI115456; 30. Rosenthal P.J. Wollish W.S. Palmer J.T. Rasnick D. Antimalarial effects of peptide inhibitors of a Plasmodium falciparum cysteine proteinase J. Clin. Invest. 1991 88 1467 1472 10.1172/JCI115456 19 || [31]; PMID 8807047; doi:10.1128/aac.40.7.1600; 31. Rosenthal P.J. Olson J.E. Lee G.K. Palmer J.T. Klaus J.L. Rasnick D. Antimalarial effects of vinyl sulfone cysteine proteinase inhibitors Antimicrob. Agents Chemother. 1996 40 1600 1603 8807047 10 ||| ... The conditions noted are these: cited from earlier work; for IC50: read-out: IC50 against P. falciparum; for IC50 in vitro: maturation schizonts and total growth inhibition assays.

The next assay deals with malarial infected mice. The conditions noted are these: four days of subcutaneous administration; cited from earlier work.
In another assay the test system is P. berghei. The arrangement: method as in 2 sources, ref 29 = [29]; PMID 8917558; doi:10.1073/pnas.93.23.13143; 29. Darkin-Rattray S.J. Gurnett A.M. Myers R.W. Dulski P.M. Crumley T.M. Allocco J.J. Cannova C. Meinke P.T. Colletti S.L. Bednarek M.A. Singh S.B. Goetz M.A. Dombrowski A.W. Polishook J.D. Schmatz D. ||| ref 25 = [25]; PMID 18305429; doi:10.3390/molecules13020432; 25. Sathe M. Thavaselvam D. Srivastava A.K. Kaushik M.P. Synthesis and antimalarial evaluation of cyclic β-amino acid-containing dipeptides Molecules 2008 13 432 443 10.3390/molecules13020432 18305429. The conditions noted are these: cited from earlier work.

The test system of assay [2] is trophozoite cysteine proteinase (TCP). Also noted: method as in PMID 1939639, PMID 8807047. To be noted: cited from earlier work.
[3] abbreviates: 16 h at 37 °C, duplicate, averaged.
The mark [4] stands for this setting: read-out: IC50 (50% reduction in the number of P. berghei schizonts), 16 h at 37 °C, concentrations 5, 50, 100, 200 µM, extrapolation from concentration response curve, duplicate, averaged.

Like-named read-outs stand apart in the source and are kept apart here. Non-standard residues stand in square brackets, D forms with d. Residues, ends and D or L forms follow the SMILES beside them. No end group written: not given here. *: point of attachment. Orn = NCCC[C@H](N)C(=O)O; Cbz = O=C(OCc1ccccc1)*; CH2F = FC*

For the compound `CC[C@H](C)[C@H](N)C(=O)N[C@@H](CCCCN)C(=O)N[C@@H](Cc1ccccc1)C(=O)N[C@@H](CCCN)C(=O)O` [Compound 1, Ile-Lys-Phe-Orn] (H-IKF[Orn]-OH), the IC50 in assay [1] (16 h) stood at 32.4 µM. On to hirsutellic A acid, for which the IC50 in the assay with P. falciparum was 8 µM. On to `CCN(CC)CCCC(C)Nc1ccnc2cc(Cl)ccc12` (stereo not shown) [Chloroquine], for which, in assay [1] (Plasmodium berghei, 16 h, read-out: IC50 (50% reduction in the number of P. berghei schizonts)), the IC50 is 0.06 µM. In assay [1] (setting [3]), the “Chemosuppression of P. berghei schizont cultures (%)” value is recorded as 100%. For the compound morpholine urea (Mu)-Phe-HPh-CH2F, in the assay on malarial infected mice, the “cured malarial infected mice” value is recorded as 80%. Turning to pepstatin A, the IC50 in the assay on P. falciparum is 7.5 µM.

As for “2-(2-tert-butoxycarbonylamino-4-methylpentanoyl-amino)-cyclooctanecarboxylic acid methyl ester”, the IC50 in vitro in the assay on P. falciparum was 3.87 µg/mL. Take “2-(2-tert-butoxycarbonylamino-3-phenyl-propionylamino)-cyclooctanecarboxylic acid methyl ester”: the “in vivo antimalarial activity against P. berghei” value in the assay with P. berghei is “active in vivo”. Moreover, in the assay on P. falciparum, the IC50 in vitro is 3.64 µg/mL. With `CC(C)[C@H](NC(=O)[C@H](CCCCN)NC(=O)[C@H](Cc1ccccc1)NC(=O)[C@@H](N)CCCN)C(=O)O` [Compound 6, Orn-Phe-Lys-Val] (H-[Orn]FKV-OH; N-terminus assumed), the IC50 in assay [1] (16 h) was above 200 µM. The “Chemosuppression of P. berghei schizont cultures (%)” value in assay [1] (setting [3]) turned out to be 26.58%. In addition, the “antimalarial activity in words (P. berghei schizont cultures)” value in assay [1] (in vitro, 16 h) is “inactive”.

On to `CC(C)[C@H](NC(=O)[C@@H](N)CCCCN)C(=O)N1CCC[C@H]1C(=O)N[C@@H](CCCN)C(=O)O` [Compound 7, Lys-Val-Pro-Orn] (H-KVP[Orn]-OH; N-terminus assumed), for which, in assay [1] (16 h), the IC50 is above 200 µM. In addition, the “Chemosuppression of P. berghei schizont cultures (%)” value in assay [1] (setting [3]) is 27.39%.

F[Orn]F[Orn] [Compound 4]: the “Chemosuppression of P. berghei schizont cultures (%)” value in assay [1] (setting [3]) amounted to 85.94%. In addition, in assay [1] (setting [4]), the IC50 is 3.31 µM. As to `CC(C)[C@H](N)C(=O)N[C@@H](CCCCN)C(=O)N[C@@H](Cc1ccccc1)C(=O)N[C@@H](CCCN)C(=O)O` [Compound 2, Val-Lys-Phe-Orn] (H-VKF[Orn]-OH), the IC50 in assay [1] (16 h) was found to be 10 µM. In the case of `NCCCC[C@H](N)C(=O)N[C@@H](CCCN)C(=O)N[C@@H](Cc1ccccc1)C(=O)N[C@@H](CCCN)C(=O)O` [Compound 3, Lys-Orn-Phe-Orn] (H-K[Orn]F[Orn]-OH), in assay [1] (16 h), the IC50 stood at 13.5 µM.

On to `COC(=O)N[C@H](C(=O)N[C@@H](Cc1ccccc1)[C@@H](O)CN(Cc1ccc(-c2ccccn2)cc1)NC(=O)[C@@H](NC(=O)OC)C(C)(C)C)C(C)(C)C` [atazanavir], for which the “inhibition of P. falciparum in vitro” value with P. falciparum is recorded as “inhibit P. falciparum in vitro”. With `CC(C)(C)NC(=O)[C@@H]1C[C@@H]2CCCC[C@@H]2CN1C[C@@H](O)[C@H](Cc1ccccc1)NC(=O)[C@H](CC(N)=O)NC(=O)c1ccc2ccccc2n1` [saquinavir], the “inhibition of P. falciparum in vitro” value with P. falciparum is on record as “inhibit P. falciparum in vitro”. On to “Cbz-Phe-Arg-CH2F [peptidylfluoromethyl ketone]”, for which the “inhibition of trophozoite cysteine proteinase” value in assay [2] is on record as “very potent inhibitor”.

In the case of HC-toxin I, the “MIC against P. falciparum” value with P. falciparum is 0.031 µg/mL. For `CC(C)[C@H](NC(=O)[C@@H](N)CCCCN)C(=O)N[C@@H](Cc1ccccc1)C(=O)N1CCC[C@H]1C(=O)O` [Compound 8, Lys-Val-Phe-Pro] (H-KVFP-OH), the IC50 in assay [1] (setting [4]) was 51.3 µM.

As for apicidin, the “in vivo antimalarial activity against P. berghei” value in the assay with P. berghei is listed as “potent in vivo antimalarial agent”. In addition, the “MIC against P. falciparum” value in the assay on P. falciparum was 0.125 µg/mL. `CC(C)[C@H](NC(=O)[C@H](CCCN)NC(=O)[C@@H](N)Cc1ccccc1)C(=O)O` [Compound 9, Phe-Orn-Val] (H-Phe-[Orn]-Val-OH) returned an IC50 in assay [1] (16 h) of 120 µM. On the same count and under the same terms, next, `NCCCC[C@H](N)C(=O)N[C@@H](Cc1ccccc1)C(=O)N[C@@H](Cc1ccccc1)C(=O)N[C@@H](CCCN)C(=O)O` [Compound 5, Lys-Phe-Phe-Orn] (H-KFF[Orn]-OH): 2.57 µM.

As to apicidin A, the “MIC against P. falciparum” value with P. falciparum is 0.125 µg/mL.

A word on the IC50: it is the midpoint of a concentration-inhibition curve.
